According to the NIST ThermoML archive (doi:10.1021/je200350a):
Numbers after ± are expanded uncertainties.

Conditions: 101.33 kPa, Liquid; for viscosity: Capillary tube (Ostwald / Ubbelohde) method

SMILES | mass density (293.15 K) [kg/m3] | viscosity (293.15 K) [mPa·s] | mass density (298.15 K) [kg/m3] | viscosity (298.15 K) [mPa·s] | mass density (303.15 K) [kg/m3] | viscosity (303.15 K) [mPa·s] | mass density (308.15 K) [kg/m3] | viscosity (308.15 K) [mPa·s]
O=[N+]([O-])c1ccccc1 [nitrobenzene] | 1202.2 ± 1.2 | 1.983 ± 0.018 | 1197.2 ± 1.2 | 1.809 ± 0.016 | 1191.5 ± 1.2 | 1.659 ± 0.015 | 1186.4 ± 1.2 | 1.529 ± 0.014
CCCCBr [1-bromobutane] | 1279.1 ± 1.5 | 0.6473 ± 0.0064 | 1272.2 ± 1.4 | 0.6096 ± 0.0061 | 1265.2 ± 1.4 | 0.5811 ± 0.0058 | 1257.2 ± 1.4 | 0.55 ± 0.0056
CC1CCCCC1 [methylcyclohexane] | 770.1 ± 1.2 | 0.7293 ± 0.0071 | 766.7 ± 1.2 | 0.6827 ± 0.0067 | 761.8 ± 1.2 | 0.6385 ± 0.0063 | 757.6 ± 1.2 | 0.5997 ± 0.006
